Laboratory results from patent publication US11696937B2, “Glycopeptide compounds having activity of resisting drug-resistant bacteria, and preparation method and application thereof” (priority 2018, dated 2023).
≈ marks a conversion by molar mass, not a printed value.

Tests used:
ATCC43300 (MRSA) = experiment: In vitro antibacterial activity (MIC) against MRSA; type: cell-based, Methicillin-resistant Staphylococcus aureus; conditions: for MIC ATCC43300 (MRSA): MRSA strain ATCC43300, method of Pharmacopoeia of the People's Republic of China (2015 edition)
Method: (§1) An antibacterial activity of the compounds in Table 1 is determined in vitro, and a minimum inhibitory concentration (MIC) is read. The determination method refers to the method of the Pharmacopoeia of the People's Republic of China (2015 edition). The MRSA detection strain is purchased from ATCC, and the VRE detection strain is from the clinically isolated drug-resistant strain 07-W3-45 from Shanghai Huashan Hospital. Known antibiotic oritavancin (phosphate) is used for a reference drug.

wild AB zebrafish = experiment: Zebrafish toxicity test; type: in vivo; conditions: intravenous injection, 72 hours of treatment, samples in phosphate form
Method: A zebrafish toxicity test of the compounds in Table 1 is also tested. Randomly select wild AB zebrafish in a six-well plate, and inject each test sample at a dose of 50, 100, 150, 200, and 250 ng/tail intravenously. At the same time, a normal control group and a solvent control group (aqueous phosphoric acid) are set; During this experiment, the death of zebrafish is observed and recorded every day and the dead fish are removed. After 72 hours of treatment, the death of zebrafish is counted. Calculate the LD50 of each test product to zebrafish.
All samples are tested for zebrafish toxicity in phosphate form.

[1] = test system: Clinical isolates 07-W3-45 (VRE); experiment: In vitro antibacterial activity (MIC) against VRE; type: cell-based, Vancomycin-resistant Enterococcus; conditions: for MIC Clinical isolates 07-W3-45 (VRE): clinically isolated drug-resistant strain 07-W3-45 from Shanghai Huashan Hospital
Method: as §1

| Structure (SMILES) | MIC ATCC43300 (MRSA) (ATCC43300 (MRSA)) | Zebrafish LD50 (wild AB zebrafish) | MIC Clinical isolates 07-W3-45 (VRE) [1] | MIC (ATCC43300 (MRSA); Staphylococcus aureus, read-out: MIC ATCC43300 (MRSA)) | MIC ([1]; Enterococcus, VRE, read-out: MIC Clinical isolates 07-W3-45 (VRE)) |
| --- | --- | --- | --- | --- | --- |
| CNC(CC(C)C)C(=O)NC1C(=O)NC(CC(N)=O)C(=O)NC2C(=O)NC3C(=O)NC(C(=O)NC(C(=O)O)c4cc(O)cc(O)c4-c4cc3ccc4O)C(OC3CC(C)(N)C(O)C(C)O3)c3ccc(c(Cl)c3)Oc3cc2cc(c3OC2OC(CO)C(O)C(O)C2OC2CC(C)(NCc3ccc(OCCc4ccc(Br)cc4)cc3)C(O)C(C)O2)Oc2ccc(cc2Cl)C1O (stereo not drawn) [Compound 9] | 0.25 µg/mL (≈ 0.133 µM) | 129 ng/tail | 1 µg/mL (≈ 0.531 µM) | – | – |
| CNC(CC(C)C)C(=O)NC1C(=O)NC(CC(N)=O)C(=O)NC2C(=O)NC3C(=O)NC(C(=O)NC(C(=O)O)c4cc(O)cc(O)c4-c4cc3ccc4O)C(OC3CC(C)(N)C(O)C(C)O3)c3ccc(c(Cl)c3)Oc3cc2cc(c3OC2OC(CO)C(O)C(O)C2OC2CC(C)(NCc3ccc(NCCc4ccc(Cl)cc4)cc3)C(O)C(C)O2)Oc2ccc(cc2Cl)C1O (stereo not drawn) [Compound 21] | 0.016 µg/mL (≈ 0.00871 µM) | 102 ng/tail | 0.5 µg/mL (≈ 0.272 µM) | – | – |
| CNC(CC(C)C)C(=O)NC1C(=O)NC(CC(N)=O)C(=O)NC2C(=O)NC3C(=O)NC(C(=O)NC(C(=O)O)c4cc(O)cc(O)c4-c4cc3ccc4O)C(OC3CC(C)(N)C(O)C(C)O3)c3ccc(c(Cl)c3)Oc3cc2cc(c3OC2OC(CO)C(O)C(O)C2OC2CC(C)(NCc3ccc(NCc4ccccc4)cc3)C(O)C(C)O2)Oc2ccc(cc2Cl)C1O (stereo not drawn) [Compound 17] | 0.5 µg/mL (≈ 0.28 µM) | 139 ng/tail | 1 µg/mL (≈ 0.559 µM) | – | – |
| CN[C@H](CC(C)C)C(=O)N[C@H]1C(=O)N[C@@H](CC(N)=O)C(=O)N[C@H]2C(=O)N[C@H]3C(=O)N[C@H](C(=O)N[C@H](C(=O)O)c4cc(O)cc(O)c4-c4cc3ccc4O)[C@H](O[C@H]3C[C@](C)(N)[C@@H](O)[C@H](C)O3)c3ccc(c(Cl)c3)Oc3cc2cc(c3O[C@@H]2O[C@H](CO)[C@@H](O)[C@H](O)[C@H]2O[C@H]2C[C@](C)(NCc3ccc(-c4ccc(Cl)cc4)cc3)[C@@H](O)[C@H](C)O2)Oc2ccc(cc2Cl)[C@H]1O [Orivancin, oritavancin, reference compound] | – | 89.4 ng/tail | – | 0.5 µg/mL (≈ 0.279 µM) | 2 µg/mL (≈ 1.12 µM) |
| CNC(CC(C)C)C(=O)NC1C(=O)NC(CC(N)=O)C(=O)NC2C(=O)NC3C(=O)NC(C(=O)NC(C(=O)O)c4cc(O)cc(O)c4-c4cc3ccc4O)C(OC3CC(C)(N)C(O)C(C)O3)c3ccc(c(Cl)c3)Oc3cc2cc(c3OC2OC(CO)C(O)C(O)C2OC2CC(C)(NCc3ccc(OCc4ccc(Cl)cc4)cc3)C(O)C(C)O2)Oc2ccc(cc2Cl)C1O (stereo not drawn) [Compound 5] | 0.5 µg/mL (≈ 0.274 µM) | 180 ng/tail | 2 µg/mL (≈ 1.1 µM) | – | – |
| CNC(CC(C)C)C(=O)NC1C(=O)NC(CC(N)=O)C(=O)NC2C(=O)NC3C(=O)NC(C(=O)NC(C(=O)O)c4cc(O)cc(O)c4-c4cc3ccc4O)C(OC3CC(C)(N)C(O)C(C)O3)c3ccc(c(Cl)c3)Oc3cc2cc(c3OC2OC(CO)C(O)C(O)C2OC2CC(C)(NCc3ccc(OCCCc4ccc(Cl)cc4)cc3)C(O)C(C)O2)Oc2ccc(cc2Cl)C1O (stereo not drawn) [Compound 13] | 0.5 µg/mL (≈ 0.27 µM) | 164 ng/tail | 2 µg/mL (≈ 1.08 µM) | – | – |
| CNC(CC(C)C)C(=O)NC1C(=O)NC(CC(N)=O)C(=O)NC2C(=O)NC3C(=O)NC(C(=O)NC(C(=O)O)c4cc(O)cc(O)c4-c4cc3ccc4O)C(OC3CC(C)(N)C(O)C(C)O3)c3ccc(c(Cl)c3)Oc3cc2cc(c3OC2OC(CO)C(O)C(O)C2OC2CC(C)(NCc3ccc(NCCc4ccccc4)cc3)C(O)C(C)O2)Oc2ccc(cc2Cl)C1O (stereo not drawn) [Compound 20] | 0.5 µg/mL (≈ 0.278 µM) | 189 ng/tail | 2 µg/mL (≈ 1.11 µM) | – | – |
| CNC(CC(C)C)C(=O)NC1C(=O)NC(CC(N)=O)C(=O)NC2C(=O)NC3C(=O)NC(C(=O)NC(C(=O)O)c4cc(O)cc(O)c4-c4cc3ccc4O)C(OC3CC(C)(N)C(O)C(C)O3)c3ccc(c(Cl)c3)Oc3cc2cc(c3OC2OC(CO)C(O)C(O)C2OC2CC(C)(NCc3ccc(NCc4ccc(Cl)cc4)cc3)C(O)C(C)O2)Oc2ccc(cc2Cl)C1O (stereo not drawn) [Compound 19] | 0.25 µg/mL (≈ 0.137 µM) | 117 ng/tail | 0.2 µg/mL (≈ 0.11 µM) | – | – |
| CNC(CC(C)C)C(=O)NC1C(=O)NC(CC(N)=O)C(=O)NC2C(=O)NC3C(=O)NC(C(=O)NC(C(=O)O)c4cc(O)cc(O)c4-c4cc3ccc4O)C(OC3CC(C)(N)C(O)C(C)O3)c3ccc(c(Cl)c3)Oc3cc2cc(c3OC2OC(CO)C(O)C(O)C2OC2CC(C)(NCc3ccc(OCc4ccc(C)cc4)cc3)C(O)C(C)O2)Oc2ccc(cc2Cl)C1O (stereo not drawn) [Compound 4] | 0.5 µg/mL (≈ 0.277 µM) | 101 ng/tail | 2 µg/mL (≈ 1.11 µM) | – | – |
| CNC(CC(C)C)C(=O)NC1C(=O)NC(CC(N)=O)C(=O)NC2C(=O)NC3C(=O)NC(C(=O)NC(C(=O)O)c4cc(O)cc(O)c4-c4cc3ccc4O)C(OC3CC(C)(N)C(O)C(C)O3)c3ccc(c(Cl)c3)Oc3cc2cc(c3OC2OC(CO)C(O)C(O)C2OC2CC(C)(NCc3ccc(OCCc4ccc(Cl)cc4)cc3)C(O)C(C)O2)Oc2ccc(cc2Cl)C1O (stereo not drawn) [Compound 8] | 0.5 µg/mL (≈ 0.272 µM) | 150 ng/tail | 1 µg/mL (≈ 0.544 µM) | – | – |
| CNC(CC(C)C)C(=O)NC1C(=O)NC(CC(N)=O)C(=O)NC2C(=O)NC3C(=O)NC(C(=O)NC(C(=O)O)c4cc(O)cc(O)c4-c4cc3ccc4O)C(OC3CC(C)(N)C(O)C(C)O3)c3ccc(c(Cl)c3)Oc3cc2cc(c3OC2OC(CO)C(O)C(O)C2OC2CC(C)(NCc3ccc(OCCc4ccc(C)cc4)cc3)C(O)C(C)O2)Oc2ccc(cc2Cl)C1O (stereo not drawn) [Compound 6] | 0.25 µg/mL (≈ 0.138 µM) | 121 ng/tail | 8 µg/mL (≈ 4.4 µM) | – | – |
